# Source: US20040121307A1, “Early detection of cellular differentiation using optophoresis” (Genoptix, Inc, priority 2002, published 2004)
# Assays:
# [1] = test system: Erythromycin-resistant strain; assay: Bacterial screen for drug sensitivity, escape velocity, resistant strain; assay type: cell-based, Staphylococcus aureus; settings: 5 μg/ml Erythromycin (FIG. 80)
# Description: (§1) In this experiment, escape velocity was measured over time in wild type Staphylococcus aureus and an Erythromycin-resistant strain. 5 μg/ml of Erythromycin was applied to both the wild type Staphylococcus aureus and an Erythromycin-resistant strain. Escape velocity measurements were taken at time zero, 30 minutes post-treatment, and 3 hours post-treatment. […] In this experiment, however, escape velocity measurements were made at time zero, 30 minutes post-treatment, and 1 hour post-treatment, and 2 hours post-treatment. A reduction in escape velocity of the Erythromycin-sensitive strain can be seen at 1 hour post-treatment.
# [2] = test system: wild type Staphylococcus aureus; assay: Bacterial screen for drug sensitivity, escape velocity, sensitive strain; assay type: cell-based
# Description: as §1
# CEM/C2 cell line = settings: cell lines obtained from ATCC; cited from earlier work
# U937 cells [3] = assay: Experiment 4: effect of camptothecin, escape velocity; assay type: cell-based; settings: for escape velocity, Average: 0.04 μg/ml camptothecin
# Description: The objective of this experiment is to test the effects of camptothecin on the escape velocities of U937 cells. Camptothecin inhibits DNA topoisomerase I and induces apoptosis. A control and three concentrations of camptothecin were tested: […]. After adding the camptothecin, the flasks are incubated at 37° C. 5% CO2.
# At the timepoints of 4 hours and 6 hours, 200 μl of cells are spun for 5 minutes at 5000 rpm. The cells are then resuspended in […] PBS/1% BSA and […] trypan blue.
# Optophoretic techniques have been investigated for their potential to detect the early onset of apoptosis in mammalian cells. U.S. patent application Ser. No. 10,240,611, for example, discloses multiple experiments in which U937 cells were treated with camptothecin and subsequently monitored Optophoretically using measured escape velocities. In one experiment, the escape velocity of the camptothecin-treated cells were measured at 4 and 6 hours after treatment. Noticeable changes in escape velocity were seen as early as 4 hours after treatment (see, e.g., FIG. 34). In that experiment, U937 cells were treated with 4 μg/ml of camptothecin and resuspended in PBS/1% BSA. Escape velocity measurements were taken after 4 and 6 hours. Table 18, reproduced below, includes the results of the escape velocity measurements for the test cells as well as the controls.
# [4] = test system: activated caspases in U937 cells; assay: Homogeneous Caspases Assay, Fluorimetric; assay type: cell-based; settings: 4 μg/ml camptothecin, 300 cells/well
# Text: Another assay that provides for even earlier detection of apoptotic events are assays that detect caspase activation. For example, the Homogeneous Caspases Assay, Fluorimetric (available from Roche, catalog no. 3005372), is able to detect caspase activation. […] The kit uses the substrate DEVD-Rhodamine 110 which is cleaved by activated caspases. When DEVD-Rhodamine 110 is cleaved, the released Rhodamine-110 molecule fluoresces upon excitation. By comparing the fluorescence from an apoptotic sample and an uninduced control, the increase in caspase activity can be quantified. While caspase assays do have the ability to detect relatively early apoptotic events, the assays require fluorometric enzyme substrates. Yet another experiment using U937 cells treated with 4 μg/ml camptothecin was carried out. In this experiment, the cells were subject to analysis using a caspase assay (Homogeneous Caspases Assay, Fluorimetric-available from Roche, catalog no. 3005372). The caspase assay is a fluorometric assay carried out in 96-well plates. […] Upon cleavage of the substrate by activated caspases, fluorescence of the released Rhodamine 110 is measured. […] FIG. 102 illustrates a graph of the relative fluorescence units (RFU) as a function of incubation times (hours) for the control (blank) as well as the camptothecin-treated cells.
# U937 cells [5] = assay: ApoAlert Annexin V assay (FACS); assay type: cell-based; settings: 4 μg/ml camptothecin
# Description: Still other assays provide earlier indications of the onset of apoptosis. For example, commercially available assays, such as the ApoAlert Annexin V assay (available from CLONETECH) are able to detect changes in the plasma membrane by using a FITC conjugate of annexin V. The ApoAlert Annexin V assay is based on the observation that within about 6-10 hours after the onset of apoptosis, most cell types translocate phosphatidylserine (PS) from the inner face of the plasma membrane to the exterior of the cell surface. Once the PS is exposed on the exterior of the cell surface, the presence of PS can be detected using a FITC conjugate of annexin V. Fluorescence microscopy and flow cytometry can then be used to detect the binding of the FITC conjugate to the […]. While this assay does provide for relatively early detection of apoptotic events, the assay requires labeled annexin V markers as well as subsequent analysis by fluorescent microscopy or flow cytometry.
# Another experiment using U937 cells treated with 4 μg/ml camptothecin was also carried out. In this experiment, however, the cells were subject to analysis using an annexin V assay. The assay was performed using the ApoAlert Annexin V Apoptosis Kit (available from Clonetech, catalog no. K2025-1). […] Significant annexin V binding is seen later in the 3 and 4 hour time points. […]
# K562 Cells [6] = assay: Escape velocities of different cell types (1064 system, CYTOP coated coverslips); assay type: cell-based; settings: 26 Hr. Taxol Treatment
# Text: Certain of the data reported herein were generated with the following setup. Optical gradient fields were generated using a Michelson interferometer and either a 150 mW, 812 nm laser (812 system) or a 2.5 W, 1064 nm laser (1064 system). The 812 system used a 100× (1.25 NA) oil immersion lens to focus the fringe pattern and to visualize the sample. The 1064 system used a 20× objective to focus the fringes and a 60× objective to visualize the sample. In general the sample cell was a coated microscope slide and/or coverslip that was sealed with Vaseline. Coverslip spacers controlled the height of the cell at approximately 150 micrometers.
# Escape velocities were measured using a gradient field generated by the 1064 system on CYTOP coated coverslips.
# K562 Cells [7] = assay: Experiment 7: time and concentration dependence of paciltaxel, escape velocity; assay type: cell-based; design: escape velocity, Ave.: unit not given here
# Description: In this experiment, the effect of time and concentration of paciltaxel was tested using K562 cells. Paciltaxel is a chemotherapeutic agent whose mechanism of action is the […] and the subsequent disruption of the cytoskeleton in cells. The timepoints tested were 4 hours, 23 hours, 30 hours and 47 hours. The concentrations of paciltaxel used in the experiment were 10 nM, 1 nM, 100 pM, and 10 pM. At each timepoint, 300 μl of cells were removed from each sample and centrifuged for 5 minutes at 5,000 rpm. The cells were then resuspended in PBS/1% BSA and trypan blue.
smiles,measurement,setting,value
CC[C@H]1OC(=O)[C@H](C)[C@@H](O[C@H]2C[C@@](C)(OC)[C@@H](O)[C@H](C)O2)[C@H](C)[C@@H](O[C@@H]2O[C@H](C)C[C@H](N(C)C)[C@H]2O)[C@](C)(O)C[C@@H](C)C(=O)[C@H](C)[C@@H](O)[C@]1(C)O [Erythromycin],escape velocity after treatment,[1],same escape velocity as the untreated Erythromycin-sensitive strain
same,time at which a reduction in escape velocity can be seen,[2]; 5 μg/ml Erythromycin (FIG. 81),1 h
same,change of escape velocity over time,"[2]; 5 μg/ml Erythromycin, time zero, 30 minutes, 3 hours post-treatment (FIG. 80)",escape velocity of the Erythromycin-sensitive strain decreases
CC[C@@]1(O)C(=O)OCc2c1cc1n(c2=O)Cc2cc3ccccc3nc2-1 [camptothecin],fold less sensitive than parental CCRF-CEM,CEM/C2 cell line,970 fold
same,shift in escape velocity over time,"U937 cells [3]; 40 ng/ml camptothecin, 4 and 6 hours (FIG. 34)",shift to lower escape velocities over time
same,"escape velocity, Average",U937 cells [3]; 4 hours,10.16 μm/sec
same,"escape velocity, Average",U937 cells [3]; 6 hours,9.52 μm/sec
same,time after administration at which caspase activity is detected,[4],> 4 h
same,time at which the annexin V assay begins to detect the onset of apoptosis,U937 cells [5],2 h
CC(=O)O[C@H]1C(=O)[C@@]2(C)[C@H]([C@H](OC(=O)c3ccccc3)[C@]3(O)C[C@H](OC(=O)[C@H](O)[C@@H](NC(=O)c4ccccc4)c4ccccc4)C(C)=C1C3(C)C)[C@]1(OC(C)=O)CO[C@@H]1C[C@@H]2O [paciltaxel],Escape Velocity,K562 Cells [6],8.2 +/− 0.4 um/sec.
same,"escape velocity, Ave.","K562 Cells [7]; 10 pM paciltaxel, 4 Hours",15.7
same,"escape velocity, Ave.","K562 Cells [7]; 10 pM paciltaxel, 23 Hours",15.7
same,"escape velocity, Ave.","K562 Cells [7]; 10 pM paciltaxel, 30 Hours",16.0
same,"escape velocity, Ave.","K562 Cells [7]; 10 pM paciltaxel, 47 Hours",16.2
same,optophoretic effect on cells,"K562 Cells [7]; 10 pM to 10 nM, 4 to 47 hours",both a time and dose dependent optophoretic effect
same,"escape velocity, Ave.","K562 Cells [7]; 100 pM paciltaxel, 4 Hours",15.9
same,"escape velocity, Ave.","K562 Cells [7]; 100 pM paciltaxel, 23 Hours",17.1
same,"escape velocity, Ave.","K562 Cells [7]; 100 pM paciltaxel, 30 Hours",17.6
same,"escape velocity, Ave.","K562 Cells [7]; 100 pM paciltaxel, 47 Hours",17.0
same,"escape velocity, Ave.","K562 Cells [7]; 1 nM paciltaxel, 4 Hours",15.6
same,"escape velocity, Ave.","K562 Cells [7]; 1 nM paciltaxel, 23 Hours",16.9
same,"escape velocity, Ave.","K562 Cells [7]; 1 nM paciltaxel, 30 Hours",16.9
same,"escape velocity, Ave.","K562 Cells [7]; 1 nM paciltaxel, 47 Hours",16.7
same,"escape velocity, Ave.","K562 Cells [7]; 10 nM paciltaxel, 4 Hours",15.3
same,"escape velocity, Ave.","K562 Cells [7]; 10 nM paciltaxel, 23 Hours",16.9
same,"escape velocity, Ave.","K562 Cells [7]; 10 nM paciltaxel, 30 Hours",17.4
same,"escape velocity, Ave.","K562 Cells [7]; 10 nM paciltaxel, 47 Hours",17.1
